Experiments:
Type in all cases: functional
[1] = target: T1, Cdk-related protein kinase 6 (Plasmodium falciparum, UniProt O77239); assay: Final concentrations were 1.5 uM ATP, 5 mM MnCl2, and 15 ug/ml PK6 in a buffer of 100 mM Tris-HCl (pH 7.5). 50 ug/mL MBP was provided as the substrate; 10 uM staurosporine was used as a control inhibitor. Incubation time was 3 hours and 40 minutes.The catalytic activity of each kinase was considered proportional to ATP consumed, as determined from measurements of residual [ATP] with the luciferase-based reagent Kinase-Glo (Promega) following incubation. Luminescence (proportional to residual [ATP]) was measured on the plate readers FLx800 (BioTek Instruments, Winooski, VT, USA) and MicroBeta2.
T1 sequence (O77239 whole entry): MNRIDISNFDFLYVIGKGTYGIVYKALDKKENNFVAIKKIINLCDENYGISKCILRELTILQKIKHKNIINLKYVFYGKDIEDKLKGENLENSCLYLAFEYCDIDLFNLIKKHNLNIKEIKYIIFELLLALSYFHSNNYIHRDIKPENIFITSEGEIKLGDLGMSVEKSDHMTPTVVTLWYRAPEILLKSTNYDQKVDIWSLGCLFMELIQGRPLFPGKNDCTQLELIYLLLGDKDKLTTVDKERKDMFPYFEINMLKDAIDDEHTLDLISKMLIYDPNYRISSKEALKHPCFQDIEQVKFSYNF

[2] = target: T2, Putative uncharacterized protein pk7 (Plasmodium falciparum, UniProt O96214); assay: Final concentrations were 1 uM ATP, 2 mM DTT, 20 mM MgCl2, 2 mM MnCl2, 0.01% BSA, and 6 ug/ml PK7, in a buffer of 20 mM Tris-HCl (pH 7.5). The enzyme itself was the only substrate present (since autophosphorylation occurs); 100 uM 1NA-PP1 was used as a control inhibitor. Incubation time was 3 hours.
T2 sequence (O96214 whole entry): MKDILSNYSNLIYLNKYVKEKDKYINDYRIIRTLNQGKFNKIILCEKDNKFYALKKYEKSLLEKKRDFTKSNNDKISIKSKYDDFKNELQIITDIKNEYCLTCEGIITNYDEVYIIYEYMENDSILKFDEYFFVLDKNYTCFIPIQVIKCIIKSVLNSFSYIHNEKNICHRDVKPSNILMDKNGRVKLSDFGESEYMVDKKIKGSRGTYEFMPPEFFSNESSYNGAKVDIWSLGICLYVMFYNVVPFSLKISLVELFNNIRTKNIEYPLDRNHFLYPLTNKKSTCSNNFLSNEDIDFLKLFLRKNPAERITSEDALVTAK

[3] = target: T3, Mitogen-activated protein kinase (Plasmodium falciparum, UniProt Q25917); assay: Final concentrations were 1 uM ATP, 0.5 mM DTT, 1 mM MgCl2, 0.5 mg/mL BSA, and 10 ug/ml MAP2 in a buffer of 50 mM HEPES (pH 7.0). 0.5 mg/mL histone III-S served as the substrate (13); 100 uM AMP-PNP, an ATP analog, was used as a control inhibitor. Incubation time was 4 hours.
T3 sequence (Q25917 whole entry): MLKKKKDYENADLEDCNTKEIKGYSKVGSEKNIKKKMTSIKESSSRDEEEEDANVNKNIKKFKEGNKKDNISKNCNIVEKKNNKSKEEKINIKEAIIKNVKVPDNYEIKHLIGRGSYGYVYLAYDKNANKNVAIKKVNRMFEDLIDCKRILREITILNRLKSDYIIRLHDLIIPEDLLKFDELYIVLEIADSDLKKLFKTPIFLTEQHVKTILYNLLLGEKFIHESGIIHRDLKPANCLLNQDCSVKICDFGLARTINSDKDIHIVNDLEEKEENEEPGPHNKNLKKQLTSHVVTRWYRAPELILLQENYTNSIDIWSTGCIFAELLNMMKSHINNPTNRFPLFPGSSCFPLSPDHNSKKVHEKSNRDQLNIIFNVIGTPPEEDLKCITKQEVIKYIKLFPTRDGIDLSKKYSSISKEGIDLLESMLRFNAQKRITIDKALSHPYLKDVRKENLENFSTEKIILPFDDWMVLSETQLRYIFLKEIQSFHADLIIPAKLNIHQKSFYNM

[4] = target: Calcium-dependent protein kinase 1 (Plasmodium falciparum, UniProt P62344); assay: MMV: CDPK1 Protein kinase inhibition assay using recombinant PfCDPK1, syntide 2 peptide substrate, ATP and KinaseGlo to measure % inhibition at 1 uM MMV box compound.
Sequence of Calcium-dependent protein kinase 1 (P62344 whole entry): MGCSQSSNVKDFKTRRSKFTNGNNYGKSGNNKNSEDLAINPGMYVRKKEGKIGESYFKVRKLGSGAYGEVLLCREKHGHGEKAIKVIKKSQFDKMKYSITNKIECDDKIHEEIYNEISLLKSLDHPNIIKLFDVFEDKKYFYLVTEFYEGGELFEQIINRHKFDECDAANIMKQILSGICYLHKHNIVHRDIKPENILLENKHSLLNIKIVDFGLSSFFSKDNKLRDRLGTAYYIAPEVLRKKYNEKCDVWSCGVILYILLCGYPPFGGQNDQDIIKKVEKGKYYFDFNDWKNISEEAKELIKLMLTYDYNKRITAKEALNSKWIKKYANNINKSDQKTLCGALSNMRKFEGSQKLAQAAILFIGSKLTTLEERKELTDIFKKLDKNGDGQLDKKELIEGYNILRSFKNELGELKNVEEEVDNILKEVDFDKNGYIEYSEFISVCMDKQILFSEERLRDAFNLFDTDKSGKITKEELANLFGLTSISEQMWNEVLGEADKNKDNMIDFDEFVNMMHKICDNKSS

[5] = target: T4, Calcium-dependent protein kinase 4 (Plasmodium falciparum (isolate 3D7), UniProt Q8IBS5); assay: MMV: CDPK4 Protein kinase inhibition assay using recombinant PfCDPK4, syntide2 peptide substrate, ATP and KinaseGlo to measure % inhibition at 1 uM MMV box compound.
T4 sequence (Q8IBS5 whole entry): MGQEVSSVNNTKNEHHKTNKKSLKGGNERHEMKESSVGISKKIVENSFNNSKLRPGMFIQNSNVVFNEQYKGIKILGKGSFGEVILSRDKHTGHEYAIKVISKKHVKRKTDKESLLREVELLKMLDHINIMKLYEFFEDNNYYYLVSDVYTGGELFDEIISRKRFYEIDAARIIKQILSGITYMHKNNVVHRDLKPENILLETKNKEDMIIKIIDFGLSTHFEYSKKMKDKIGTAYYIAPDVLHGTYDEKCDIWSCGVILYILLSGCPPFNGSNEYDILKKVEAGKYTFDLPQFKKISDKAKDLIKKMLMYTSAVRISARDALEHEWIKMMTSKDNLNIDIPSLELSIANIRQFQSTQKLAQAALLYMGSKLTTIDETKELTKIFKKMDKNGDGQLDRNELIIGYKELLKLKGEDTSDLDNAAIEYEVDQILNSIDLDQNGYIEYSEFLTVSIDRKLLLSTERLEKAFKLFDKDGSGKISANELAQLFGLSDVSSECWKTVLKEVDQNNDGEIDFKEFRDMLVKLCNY

[6] = target: T5, Proline--tRNA ligase (Plasmodium falciparum (isolate 3D7), UniProt Q8I5R7); assay: MMV: ProRS recombinant Plasmodium falciparum Prolyl-tRNA-synthetase, assay with yeast tRNA, ATP, and proline and 3 uM MMV malaria box compound, assay read out with kinase glo as % inhibition.
T5 sequence (Q8I5R7 whole entry): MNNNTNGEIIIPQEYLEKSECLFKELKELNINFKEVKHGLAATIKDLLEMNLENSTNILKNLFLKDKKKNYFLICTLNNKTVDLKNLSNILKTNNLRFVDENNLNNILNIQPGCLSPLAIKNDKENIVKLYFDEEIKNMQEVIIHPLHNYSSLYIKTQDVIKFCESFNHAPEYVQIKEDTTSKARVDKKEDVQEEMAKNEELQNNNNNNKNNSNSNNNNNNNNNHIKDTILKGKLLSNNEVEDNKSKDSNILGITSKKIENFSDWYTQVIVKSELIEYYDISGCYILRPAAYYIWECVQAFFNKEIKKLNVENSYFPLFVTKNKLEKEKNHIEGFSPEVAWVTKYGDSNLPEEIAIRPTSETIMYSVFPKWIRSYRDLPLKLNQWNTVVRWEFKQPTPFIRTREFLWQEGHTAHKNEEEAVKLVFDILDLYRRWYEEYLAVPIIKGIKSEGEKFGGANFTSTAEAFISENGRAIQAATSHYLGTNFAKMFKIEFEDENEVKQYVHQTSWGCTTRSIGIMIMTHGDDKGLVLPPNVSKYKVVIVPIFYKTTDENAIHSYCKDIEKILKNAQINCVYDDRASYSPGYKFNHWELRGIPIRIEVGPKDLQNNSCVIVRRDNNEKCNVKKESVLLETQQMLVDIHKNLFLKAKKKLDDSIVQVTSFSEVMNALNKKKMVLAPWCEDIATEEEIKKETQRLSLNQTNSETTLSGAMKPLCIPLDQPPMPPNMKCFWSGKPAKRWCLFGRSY

[7] = target: Lysine--tRNA ligase (Plasmodium falciparum (isolate 3D7), UniProt Q8IDJ8); assay: MMV: KRS recombinant Plasmodium falciparum Lysyl-tRNA-synthetase, assay with yeast tRNA, ATP, and lysine and 3 uM MMV malaria box compound, assay read out with kinase glo as % inhibition.
Sequence of Lysine--tRNA ligase (Q8IDJ8 whole entry): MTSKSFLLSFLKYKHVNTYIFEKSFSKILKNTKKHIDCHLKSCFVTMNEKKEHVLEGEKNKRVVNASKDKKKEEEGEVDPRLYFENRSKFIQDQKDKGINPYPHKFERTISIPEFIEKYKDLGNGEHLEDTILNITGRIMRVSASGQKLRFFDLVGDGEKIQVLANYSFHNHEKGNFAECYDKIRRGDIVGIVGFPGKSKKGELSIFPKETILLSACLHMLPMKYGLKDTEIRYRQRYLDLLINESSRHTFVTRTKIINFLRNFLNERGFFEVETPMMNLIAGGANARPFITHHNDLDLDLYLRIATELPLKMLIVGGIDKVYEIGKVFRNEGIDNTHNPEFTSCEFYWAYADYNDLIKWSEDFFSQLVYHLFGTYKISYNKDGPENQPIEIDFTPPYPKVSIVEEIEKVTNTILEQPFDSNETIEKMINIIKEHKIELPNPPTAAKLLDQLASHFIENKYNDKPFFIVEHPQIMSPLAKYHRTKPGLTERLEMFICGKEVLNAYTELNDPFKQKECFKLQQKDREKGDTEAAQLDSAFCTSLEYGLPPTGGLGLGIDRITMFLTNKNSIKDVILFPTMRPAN

SMILES | IC50 [1] [nM] | IC50 [2] [nM] | IC50 [3] [nM] | IC50 [4] [nM] | IC50 [5] [nM] | IC50 [6] [nM] | IC50 [7] [nM]
O=C(Nc1ccc(Cl)c(Cl)c1)Nc1ccc(Cl)c(Cl)c1 | > 1000 | > 1000 | > 1000 | > 1000 | > 1000 | > 2500 | > 2500
N=c1n(CCN2CCCCC2)c2ccccc2n1CC(=O)c1ccc(Cl)c(Cl)c1 | > 1000 | > 1000 | > 1000 | > 1000 | > 1000 | > 2500 | > 2500
COc1ccc(-c2nc(N3CCN(C(=O)C4CCCCC4)CC3)c3c4c(sc3n2)CCCC4)cc1 | > 1000 | > 1000 | > 1000 | > 1000 | > 1000 | > 2500 | > 2500
COc1cc(C(=O)Nc2nc3c(cc4c5c(cccc53)CC4)s2)cc(OC)c1OC | > 1000 | > 1000 | > 1000 | > 1000 | > 1000 | > 2500 | > 2500
COc1ccc(CCN2C(=O)c3[nH]nc(-c4cc(Cl)c(C)cc4O)c3C2c2ccccc2F)cc1 (configuration not stated) | > 1000 | > 1000 | > 1000 | > 1000 | > 1000 | > 2500 | > 2500
COc1cc(C(=O)Nc2ccc(-c3nc4ccccc4[nH]3)cc2)cc(OC)c1OC | > 1000 | > 1000 | > 1000 | > 1000 | > 1000 | > 2500 | > 2500
CCOc1ccc(N2C(N)=NC(N)=NC2(C)C)cc1 | > 1000 | > 1000 | > 1000 | > 1000 | > 1000 | > 2500 | > 2500
O=C(CCl)NCCOc1ccc(Cl)cc1Cl | > 1000 | > 1000 | > 1000 | > 1000 | > 1000 | > 2500 | > 2500
CCOc1ccc(CN2CCN(CC(O)COc3ccc(OCC(O)CN4CCN(Cc5ccc(OCC)cc5)CC4)cc3)CC2)cc1 (configuration not stated) | > 1000 | > 1000 | > 1000 | > 1000 | > 1000 | > 2500 | > 2500
CCCCNc1nc(NC(C)(C)C)nc(NC(C)(C)C)n1 | > 1000 | > 1000 | > 1000 | > 1000 | > 1000 | > 2500 | > 2500
COc1ccc(CCn2c(=N)c(C(=O)NCc3cccnc3)cc3c(=O)n4cccc(C)c4nc32)cc1 | > 1000 | > 1000 | > 1000 | > 1000 | > 1000 | > 2500 | > 2500
COc1ccc(Nc2cc(C)nc(NCc3ccccc3)n2)cc1 | > 1000 | > 1000 | > 1000 | > 1000 | > 1000 | > 2500 | > 2500
Oc1ccc2ccccc2c1CNc1nc2ccccc2[nH]1 | > 1000 | > 1000 | > 1000 | > 1000 | > 1000 | > 2500 | > 2500
O=C1c2ccc3c4c(ccc(c24)C(=O)N1CCCCO)C(=O)N(CCCCO)C3=O | > 1000 | > 1000 | > 1000 | > 1000 | > 1000 | > 2500 | > 2500
COc1ccc(C(=O)C(CCC(CNC(C)(C)C)C(=O)c2ccc(OC)cc2)CNC(C)(C)C)cc1 (configuration not stated) | > 1000 | > 1000 | > 1000 | > 1000 | > 1000 | > 2500 | > 2500
Oc1c(C(Nc2ccccn2)c2cccc(Oc3ccccc3)c2)ccc2cccnc12 (configuration not stated) | > 1000 | > 1000 | > 1000 | > 1000 | > 1000 | > 2500 | > 2500
COc1cc(-c2nc(-c3ccccc3)c(-c3ccccc3)[nH]2)cc(OC)c1O | > 1000 | > 1000 | > 1000 | > 1000 | > 1000 | > 2500 | > 2500
OC(CNC1CCCCC1)Cn1c2ccc(I)cc2c2cc(I)ccc21 (configuration not stated) | > 1000 | > 1000 | > 1000 | > 1000 | > 1000 | > 2500 | > 2500
COc1cc(CNCCc2ccc(Cl)cc2)cc(OC)c1O | > 1000 | > 1000 | > 1000 | > 1000 | > 1000 | > 2500 | > 2500
Oc1ccc(Br)cc1CN1CCN(Cc2ccc(Cl)cc2)CC1 | > 1000 | > 1000 | > 1000 | > 1000 | > 1000 | > 2500 | > 2500
Cc1ccc(C)c(-c2csc(Nc3ccc(C)c(C)c3)n2)c1 | > 1000 | > 1000 | > 1000 | > 1000 | > 1000 | > 2500 | > 2500

Reference: ChEMBL document CHEMBL3301562, “MMV Box screening against Plasmodium falciparum protein kinases and aminoacyl tRNA synthetases”
